ChEMBL document CHEMBL1201862, “PubChem BioAssay data set” (2004)
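Growth conditions: 96-well plates. Treatment: test compound, 48 hours, 5 concentrations. Analysis: linear interpolation between bracketing concentrations; unreached endpoints set to highest concentration. GI50: concentration for 50% inhibition of growth.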 Active and inactive are the calls of the source. No stated cut-off is given here; in the data, active = GI50 up to about 1.1 µM and inactive = higher.

Experiments:
Test in all cases: DTP human tumour cell line panel, 48 h
[1] = tested on: KM12
[2] = tested on: HOP-62
[3] = tested on: SW-620
[4] = tested on: EKVX
[5] = tested on: SK-MEL-5
[6] = tested on: MOLT-4
[7] = tested on: Malme-3M
[8] = tested on: HCT-15
[9] = tested on: HL-60
[10] = tested on: DMS-273
[11] = tested on: 786-0
[12] = tested on: OVCAR-8
[13] = tested on: SNB-19
[14] = tested on: HT-29
[15] = tested on: UACC-257
[16] = tested on: NCI-H460
[17] = tested on: DU-145
[18] = tested on: MDA-N
[19] = tested on: OVCAR-4
[20] = tested on: Hs-578T

Row | SMILES | GI50 [1] | GI50 [2] | GI50 [3] | GI50 [4] | GI50 [5] | GI50 [6] | GI50 [7] | GI50 [8] [µM] | GI50 [9] | GI50 [10] | GI50 [11] | GI50 [12] | GI50 [13] | GI50 [14] | GI50 [15] | GI50 [16] | GI50 [17] | GI50 [18] | GI50 [19] | GI50 [20]
1 | CC1(C)c2ccccc2N2O[C@@H]3C(=O)N(c4ccccc4)C(=O)[C@@H]3C21c1ccccc1 (stereo partly drawn) | > 100 µM (inactive) | > 100 µM (inactive) | > 100 µM (inactive) | > 100 µM (inactive) | > 100 µM (inactive) | 47.8 µM (inactive) | > 100 µM (inactive) | > 100 | 30.8 µM (inactive) | > 100 µM (inactive) | > 100 µM (inactive) | > 100 µM (inactive) | > 100 µM (inactive) | > 100 µM (inactive) | > 100 µM (inactive) | – | – | – | – | –
2 | O[C@@H]1C[C@@H]2N[C@@](O)(C[C@@H]2O)[C@H]1O | > 100 µM (inactive) | > 100 µM (inactive) | > 100 µM (inactive) | > 100 µM (inactive) | > 100 µM (inactive) | > 100 µM (inactive) | > 100 µM (inactive) | > 100 | > 100 µM (inactive) | – | > 100 µM (inactive) | > 100 µM (inactive) | > 100 µM (inactive) | > 100 µM (inactive) | > 100 µM (inactive) | > 100 µM (inactive) | > 100 µM (inactive) | > 100 µM (inactive) | > 100 µM (inactive) | > 100 µM (inactive)
3 | CCOC1c2nc3ccccc3nc2-c2ccccc2N1C(C)=O (stereo not drawn) | > 100 µM (inactive) | > 100 µM (inactive) | > 100 µM (inactive) | > 100 µM (inactive) | – | > 100 µM (inactive) | – | > 100 | > 100 µM (inactive) | 93.3 µM (inactive) | 56.8 µM (inactive) | 48.2 µM (inactive) | > 100 µM (inactive) | > 100 µM (inactive) | > 100 µM (inactive) | > 100 µM (inactive) | – | – | 74.6 µM (inactive) | –
4 | CC(C)c1cccc(C(C)C)c1NC(=S)NN=C1C=C(C(C)(C)C)C(=O)C(C(C)(C)C)=C1 | – | 16.5 µM (inactive) | 28.5 µM (inactive) | 33.5 µM (inactive) | 21 µM (inactive) | 28.7 µM (inactive) | 27.3 µM (inactive) | 37.3 | 26.1 µM (inactive) | 29.9 µM (inactive) | 18.9 µM (inactive) | 17.8 µM (inactive) | 22.3 µM (inactive) | 33 µM (inactive) | 18.9 µM (inactive) | 25.6 µM (inactive) | – | – | 17.3 µM (inactive) | –
5 | COC1/C=C\OC2(C)Oc3c(C)c(O)c4c(O)c(c(CN(C)C)c(O)c4c3C2=O)NC(=O)/C(C)=C\C=C/C(C)C(O)C(C)C(O)C(C)C(OC(C)=O)C1C (stereo not drawn) | 33.7 µM (inactive) | 55.1 µM (inactive) | 12.2 µM (inactive) | 12.5 µM (inactive) | 18.5 µM (inactive) | 15.5 µM (inactive) | 19.3 µM (inactive) | 44.2 | 18.5 µM (inactive) | – | 27.4 µM (inactive) | 30.6 µM (inactive) | 42.9 µM (inactive) | 20.6 µM (inactive) | 22.4 µM (inactive) | 32.1 µM (inactive) | 32.3 µM (inactive) | 30.6 µM (inactive) | 36.6 µM (inactive) | 30.7 µM (inactive)
6 | O=C1c2ccccc2C(=O)N1c1ccc(OCCN2CCCCC2)cc1 | > 100 µM (inactive) | > 100 µM (inactive) | > 100 µM (inactive) | > 100 µM (inactive) | > 100 µM (inactive) | > 100 µM (inactive) | > 100 µM (inactive) | > 100 | > 100 µM (inactive) | – | > 100 µM (inactive) | > 100 µM (inactive) | > 100 µM (inactive) | > 100 µM (inactive) | > 100 µM (inactive) | > 100 µM (inactive) | > 100 µM (inactive) | > 100 µM (inactive) | > 100 µM (inactive) | > 100 µM (inactive)
7 | CC1(C)C(=O)C2(C#N)CCC1C2 (stereo not drawn) | > 100 µM (inactive) | > 100 µM (inactive) | > 100 µM (inactive) | > 100 µM (inactive) | > 100 µM (inactive) | > 100 µM (inactive) | > 100 µM (inactive) | > 100 | > 100 µM (inactive) | – | > 100 µM (inactive) | > 100 µM (inactive) | > 100 µM (inactive) | > 100 µM (inactive) | > 100 µM (inactive) | > 100 µM (inactive) | > 100 µM (inactive) | > 100 µM (inactive) | > 100 µM (inactive) | > 100 µM (inactive)
8 | CCC(=O)C1=C(OC(C)=O)C2Cc3c(n(C)c4ccccc34)C(C1)N2C (stereo not drawn) | 45.9 µM (inactive) | – | 26.1 µM (inactive) | 64.3 µM (inactive) | 28.2 µM (inactive) | 34.7 µM (inactive) | 48.6 µM (inactive) | 18.7 | 21.6 µM (inactive) | 20 µM (inactive) | 22.2 µM (inactive) | 18.9 µM (inactive) | > 100 µM (inactive) | 30.8 µM (inactive) | 24.5 µM (inactive) | 53 µM (inactive) | – | – | 28.4 µM (inactive) | –
